Several values for one entry are separate records, joined by “and”; a condition that tells them apart may be missing. Equal values may be shown once.
Tests used:
[1] = target: T1, FXR (Homo sapiens, UniProt Q96RI1); experiment: AlphaScreen coactivator (SRC-1) recruitment assay on FXR; assay type: biochemical; details: for FXR efficacy (% vs. CDCA): AlphaScreen SRC-1 recruitment, compounds at 10 μM, CDCA = 100%; for EC50: AlphaScreen coactivator recruitment, FXR with SRC-1
T1 sequence (Q96RI1 262-486 limits assumed): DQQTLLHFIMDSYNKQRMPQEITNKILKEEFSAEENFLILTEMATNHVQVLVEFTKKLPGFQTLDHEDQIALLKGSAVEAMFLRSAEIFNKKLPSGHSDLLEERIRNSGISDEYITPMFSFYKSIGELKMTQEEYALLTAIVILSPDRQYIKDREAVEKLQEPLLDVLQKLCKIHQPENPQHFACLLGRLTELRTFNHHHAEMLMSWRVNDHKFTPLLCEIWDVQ
Experimental: Compounds’ ability to mediate cofactor recruitment was evaluated by employing AlphaScreen GST Detection Kit (PerkinElmer). Particularly, FXR agonism was evaluated employing 10 nM FXR-LBD GST-fused (Thermo Scientific) and 30 nM of biotinylated SRC1 peptide ([…]) in the presence of 20 μg/mL donor and acceptor beads and in buffer containing 50 mM Tris-HCl (pH7.4), 20 mM KCl, 1 mM DTT, and 0.1% BSA. For PPARα assay, a buffer containing 50 mM MOPS, 50 mM NaF, 0.05 mM CHAPS, and 0.05% BSA (pH = 7.4) was used, and 20 nM PPARα LBD GST fused (Thermo Scientific) and 60 nM of biotinylated SRC1 peptide were employed. Both acceptor and donor beads were added to reach 20 μg/mL final concentration. Incubations were performed in a final volume of 25 μL employing 384 wells Optiplate and Alpha signal was measured with Envision 2,105 (Perkin Elmer) multimode plate reader. For efficacy, compounds were tested at 10 μM for FXR and 50 μM for PPARα.

[2] = target: T2, GPBAR1 (Homo sapiens, UniProt Q8TDU6); experiment: GPBAR1 transactivation (CRE-luciferase reporter) assay in HEK-293T cells; assay type: cell-based; details: for Emax: 18 h, read-out: GPBAR1 efficacy (% vs. TLCA); for EC50: transactivation assay, HEK-293T cells
T2 construct: expressed in transfected cells; host or cells: HEK-293T
T2 sequence (Q8TDU6 1-330): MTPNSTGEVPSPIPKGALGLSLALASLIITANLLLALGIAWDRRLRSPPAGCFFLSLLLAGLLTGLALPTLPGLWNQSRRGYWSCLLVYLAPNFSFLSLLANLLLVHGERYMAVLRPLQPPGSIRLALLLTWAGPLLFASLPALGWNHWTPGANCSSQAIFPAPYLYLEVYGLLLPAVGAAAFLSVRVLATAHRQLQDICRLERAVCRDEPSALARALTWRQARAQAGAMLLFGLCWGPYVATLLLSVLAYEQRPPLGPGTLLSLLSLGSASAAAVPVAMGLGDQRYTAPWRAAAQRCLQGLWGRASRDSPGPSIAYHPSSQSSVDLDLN
Experimental: HepG2 and HEK-293T cells were cultured at 37 °C in minimal essential medium (MEM) and Dulbecco’s Modified Eagle Medium (DMEM) respectively, supplemented with 10% fetal bovine serum, 1% L-glutamine, 100 U/mL penicillin, and 100 μg/mL streptomycin. To investigate FXR-mediated transactivation, the HepG2 cells were transfected with 200 ng of the reporter vector p (hsp27)TK-Luc containing the FXR response element IR1 cloned from the promoter of heat shock protein 27 (hsp27), plus 100 ng pSG5-FXR, 100 ng pSG5-RXR, and 100 ng pGL4.70 Renilla. To evaluate GPBAR1 mediated transactivation, HEK-293T cells were transfected with 200 ng of human pGL4.29 (Promega), a reporter vector containing a cAMP response element (CRE) that drives the transcription of the luciferase reporter gene luc2P, with 100 ng of pCMVSPORT6-human GPBAR1, and with 100 ng of pGL4.70. At 24 h post-transfection, cells were stimulated 18 h with 10 μM TLCA (taurolithocholic acid a GPBAR1 agonist) or CDCA (FXR agonist) and compounds. To calculate the EC50 on FXR and GPBAR1, dose-response curves were performed in HEK-293T cells transfected as described above and then treated with increasing concentrations of compounds (from 0.1 to 50 µM). After treatments, cells were lysed in 100 μL of lysis buffer (25 mM Tris-phosphate, pH 7.8; 2 mM DTT; 10% glycerol; 1% Triton X-100), and 10 μL of cellular lysate was assayed for luciferase activity using the Firfly &Renilla Luciferase assay kit (Biotium). Luminescence was measured using Glomax 20/20 luminometer (Promega). Luciferase activities were assayed and normalized with Renilla activities.

[3] = tested on: U937 cells; experiment: Pro-inflammatory gene expression (qRT-PCR) in LPS-activated U937 cells; assay type: cell-based, human; details: LPS 100 ng/mL, 18 h, compound 1 10 μM; for IL-1β mRNA expression / IL-6 mRNA expression: BAR502 and clofibrate 5 and 10 μM
Experimental: U937 cell line were cultured in RPMI 1640 supplemented with 10% FBS, 1% glutamine, and 1% penicillin/streptomycin and were regularly passaged to maintain exponential growth. After 24 h of starvation cells were classically activated with LPS (100 ng/mL; Sigma-Aldrich, St. Louis, MO), and exposed or not to BAR502, clofibrate and compound 1 at the concentration of 5 and 10 μM for 18 h. At the end of the experiment the cells were recovered. Total mRNA extraction from U937 and 3T3.L1 was performed using Tri-Reagent (Zymo Research) and Direct-zolTM RNA MiniPrep w/Zymo-SpinTM IIC Columns (Zymo Research, Irvine, CA). After purification from genomic DNA using DNase I (Thermo Fisher Scientific, Waltham, MA), 1 μg of RNA from each sample was reverse transcribed using Kit […] Basic (Nippon Genetics, […] 20-μL of reaction volume; 50 ng of cDNA was amplified in a 20-μL solution containing 200 nM each primer and 10 μL of PowerUpTM SYBRTM Green Master Mix (Thermo Fisher Scientific, Waltham, MA). All reactions were performed in triplicate using the following thermal cycling conditions: 3 min at 95°C, followed by 40 cycles of 95°C for 15 s, 56°C for 20 s, and 72°C for 30 s, using a QuantStudio 3 system (Applied Biosystems, Foster City, CA). The relative mRNA expression was calculated accordingly to the ΔCt method. Primers were designed using the software PRIMER3 (http://frodo.wi.mit.edu/primer3/) using published data obtained from the NCBI database. The primer used were as following (forward and reverse): hGAPDH (for […]-1β (for [NT], hIL6 (for [NT] hCXCL2 (for [NT] hTNFα; (for [NT], mAdiponectin (for […]ɤ (for [NT], mCebp (for [NT]

[4] = transactivation on HEK-293T cells, TLCA 10 μM = 100%

SMILES | FXR efficacy (% vs. CDCA) [1] | EC50 [1] | Emax [2, 4] | EC50 [2] | IL-1β mRNA expression [3] | IL-6 mRNA expression [3] | GPBAR1 efficacy (% vs. TLCA) [2, 4] | CXCL2 mRNA expression [3]
CC[C@H]1[C@@H](O)[C@@H]2[C@H](CC[C@]3(C)[C@@H]([C@H](C)CCO)CC[C@@H]23)[C@@]2(C)CC[C@@H](O)C[C@@H]12 [BAR502, 6α-ethyl-3α,7α-dihydroxy-24-nor-5β-cholan-23-ol] | 153.0 ± 3.1% | 0.69 ± 0.15 µM | 79.5 ± 11.8% | 0.4 ± 0.1 µM | reducing the expression of pro-inflammatory cytokines | reducing the expression of pro-inflammatory cytokines |  | 
CC[C@@H]1C2C[C@H](O)CC[C@]2(C)C2CC[C@@]3(C)C(CC[C@@H]3[C@H](C)CCOC(=O)C(C)(C)Oc3ccc(Cl)cc3)C2[C@@H]1O (some centres unmarked) [Compound 1] | 79% and 79.0 ± 3.8% | 3.4 ± 1.2 µM | 145% | 0.37 ± 0.02 µM | greatest efficacy in reducing the expression | greatest efficacy in reducing the expression | 145 ± 10% | the only compound also reducing the expression

Reference: article PMC11289669, “BAR502/fibrate conjugates: synthesis, biological evaluation and metabolic profile” (Frontiers in Chemistry, 2024)
